Results: patent US10006080B2, “High-selectivity contact activation inhibitor based on infestin-4” (OBSCHESTVO S OGRANICHENNOY OTVETSTVENNOSTYU …, priority 2013, dated 2018)

Assays:
[1] = tested on: TF-initiated fibrin clot growth; experiment: Thrombodynamics analyzer T-2, fibrin clot growth from immobilized TF in normal and hypocoagulant PFP (0.1 IU/ml heparin); type: biochemical, human; settings: MutB 20 μM, CTI 15 μM; n=4
Method: The influence of contact activation inhibitors on coagulation dynamics can be shown on the example of fibrin clot growth from the surface with immobilized TF. The dynamics of fibrin clot growth from the activator can be characterized by the following parameters: delay of clot formation after the contact of plasma with the tissue factor—lag time (Tlag, min); average clot growth velocity within 2-6 minutes after the start of coagulation—initial velocity (Vin, μm/min); and average clot growth velocity within 15-25 minutes after the start of coagulation—stationary velocity (Vst, μm/min) (Balandina et al. 2011, Biophys. J. 101:1816-1824; Dashkevich et at 2012, Biophys. J. 103:2233-2240). The mentioned parameters allow determining the state of blood coagulation of the subjects from whom the test samples were obtained («Practical coagulology», M A Panteleev, S A Vasilyev, E I Sinauridze and co-authors, ed. by A I Vorobyov. Moscow, publishing house «Practical medicine», 2011, 192 pages., ISBN: 978-5-98811-165-8). […]

[2] = tested on: contact-activated coagulation; experiment: APTT test in platelet free plasma of a healthy donor (kaolin-cephalin activation); type: biochemical, human; settings: for concentration at which the APTT increases nearly four-fold / concentration leading to 2.5-fold increase of APTT: normal plasma
Method: The assessment of activity of the polypeptide comprising the sequence of an infestin-4 mutant MutB by its inhibition of the contact-activated coagulation shall be considered further with a reference to FIG. 1. Native infestin-4 and mutants MutB and Mut15 were added into 3 separate samples of platelet free plasma (PFP) of a healthy donor, with subsequent measuring time of contact-activated clotting in the APTT test.
Blood plasma from healthy donors was processed according to standard protocols of blood collection for coagulation assays (Collection, Transport, and Processing of Blood Specimens for Testing Plasma-Based Coagulation Assays and Molecular Hemostasis Assays; Approved Guideline Fifth Edition by Clinical and Laboratory Standards Institute (CLSI) H21-A5 Vol. 28 No. 5). 0.38% sodium citrate was added into blood to block the calcium ions.
The APTT test was administered using the reagent kits “Coagulo-test” (Scientific-production association Renam, Moscow, Russia) and different concentrations of the following contact activation inhibitors: native infestin-4, MutB, and Mut15. To do that, 50 microliters of blood plasma from a healthy donor were mixed with 5.6 microliters of a 10× solution of different inhibitor concentrations and incubated for 15 minutes at 37° C. Then, according to the “Coagulo-test” manual, 25 microliters of the mixture were transferred into the cuvette of the coagulometer Helena-C2, with addition of 25 microliters of kaolin-cephalin mixture activating fXII in blood plasma. After incubation at 37° C. for 3 minutes, 25 microliters of the calcium chloride solution in the initial concentration of 25 mM was added, and the time of fibrin clot formation in the coagulometer cuvette was determined photometrically.
APTT dependences on concentrations of native infestin-4, MutB and Mut15 obtained in the same way as in Example 1, are shown on FIG. 1.

[3] = target: T1, factor XIa (UniProt P03951 19-625); experiment: chromogenic test (S-2366), IC50 converted by Cheng-Prusoff
T1 construct: also called fXIa
Method: To determine the inhibition activity of such proteins as MutB, CTI, Inf4, Mut15, and LCTI-III as related to different coagulation proteases in a buffer, the chromogenic test was used: the mixture of protease and inhibitor was incubated in the wells of the plate for 15 minutes at 37° C., after which the chromogenic substrate solution was added to the mixture, and the protease activity was measured as the rate of chromogenic product formation at 37° C.
Chromogenic substrates included a p-nitroanilide group cleaved by the corresponding proteases. After cleavage of the p-nitroanilide group from the substrate molecule, the group absorption spectrum changes, and the change of concentration of such product within time can be detected at the light wavelength of 405 nm using a plate spectrophotometer. To build a dependence curve of the protease activity from the inhibitor concentration, different inhibitor concentrations were added into several samples with the same protease concentration. After that, the inhibitor concentration able to decrease the protease activity by 50% (IC50) was determined. The inhibition constant Ki was calculated using the Cheng-Prusoff equation (Ki=IC50/(1+S/KM)), where S is the initial substrate concentration, KM is the Michaelis-Menten constant of the substrate to the protease.

Row | Ki [3] [µM] | Molecule | influence on the difference of fibrin clot growth dynamics between hypocoagulant and normal plasma [1] | APTT ([2]; 10 μM inhibitor in PFP, 45 sec without inhibitor) [s] | activity in blood plasma in comparison to Mut15 ([2]; APTT dose-dependence) | activity in blood plasma in comparison with Mut15 and native infestin-4 ([2]; APTT dose-dependence, FIG. 1) | concentration at which the APTT increases nearly four-fold [2] [µM] | concentration leading to 2.5-fold increase of APTT [2] [µM]
1 |  | MutB: polypeptide comprising the sequence of infestin-4 mutant MutB (SEQ ID NO: 1), inhibition loop TRNFVA; high-selectivity fXIIa inhibitor (EVRNPCACTRNFVAVCGSDGKTYGNPCMLNCAAQTKVPGLKLVHEGRCQRSNVEQF; Infestin-4 mutant MutB) | does not have any influence | 120 | nearly twofold | increased activity | 20 | 10
2 | 15 | corn trypsin inhibitor (other, UniProt P01088 29-138, looked up, Isolated from corn; also called CTI) SAGTSCVPGWAIPHNPLPSCRWYVTSRTCGIGPRLPWPELKRRCCRELADIPAYCRCTALSILMDGAIPPGPDAQLEGRLEDLPGCPREVQRGFAATLVTEAECNLATIS | does not have any influence |  |  |  | 15 | 5
